In paper PMC8658794, “Design, Synthesis, and Biological Evaluation of HDAC Degraders with CRBN E3 Ligase Ligands” (Molecules, 2021):
Read-outs that look alike come from different tables or passages of the source.

How the values were obtained:
HDAC6 [1] = biological target: T1, HDAC6 (Homo sapiens, UniProt Q9UBN7); experiment: In vitro HDAC inhibition assay (fluorogenic substrate), HDAC6; format: biochemical; parameters: All three full-length rhHDACs were expressed in insect High5 cells using a baculoviral expression system; His6; GST; made in house; host or cells: insect High5 cells (baculovirus); conditions: recombinant human HDAC6; mean ± SD of three independent determinations
T1 sequence (Q9UBN7 1-1215): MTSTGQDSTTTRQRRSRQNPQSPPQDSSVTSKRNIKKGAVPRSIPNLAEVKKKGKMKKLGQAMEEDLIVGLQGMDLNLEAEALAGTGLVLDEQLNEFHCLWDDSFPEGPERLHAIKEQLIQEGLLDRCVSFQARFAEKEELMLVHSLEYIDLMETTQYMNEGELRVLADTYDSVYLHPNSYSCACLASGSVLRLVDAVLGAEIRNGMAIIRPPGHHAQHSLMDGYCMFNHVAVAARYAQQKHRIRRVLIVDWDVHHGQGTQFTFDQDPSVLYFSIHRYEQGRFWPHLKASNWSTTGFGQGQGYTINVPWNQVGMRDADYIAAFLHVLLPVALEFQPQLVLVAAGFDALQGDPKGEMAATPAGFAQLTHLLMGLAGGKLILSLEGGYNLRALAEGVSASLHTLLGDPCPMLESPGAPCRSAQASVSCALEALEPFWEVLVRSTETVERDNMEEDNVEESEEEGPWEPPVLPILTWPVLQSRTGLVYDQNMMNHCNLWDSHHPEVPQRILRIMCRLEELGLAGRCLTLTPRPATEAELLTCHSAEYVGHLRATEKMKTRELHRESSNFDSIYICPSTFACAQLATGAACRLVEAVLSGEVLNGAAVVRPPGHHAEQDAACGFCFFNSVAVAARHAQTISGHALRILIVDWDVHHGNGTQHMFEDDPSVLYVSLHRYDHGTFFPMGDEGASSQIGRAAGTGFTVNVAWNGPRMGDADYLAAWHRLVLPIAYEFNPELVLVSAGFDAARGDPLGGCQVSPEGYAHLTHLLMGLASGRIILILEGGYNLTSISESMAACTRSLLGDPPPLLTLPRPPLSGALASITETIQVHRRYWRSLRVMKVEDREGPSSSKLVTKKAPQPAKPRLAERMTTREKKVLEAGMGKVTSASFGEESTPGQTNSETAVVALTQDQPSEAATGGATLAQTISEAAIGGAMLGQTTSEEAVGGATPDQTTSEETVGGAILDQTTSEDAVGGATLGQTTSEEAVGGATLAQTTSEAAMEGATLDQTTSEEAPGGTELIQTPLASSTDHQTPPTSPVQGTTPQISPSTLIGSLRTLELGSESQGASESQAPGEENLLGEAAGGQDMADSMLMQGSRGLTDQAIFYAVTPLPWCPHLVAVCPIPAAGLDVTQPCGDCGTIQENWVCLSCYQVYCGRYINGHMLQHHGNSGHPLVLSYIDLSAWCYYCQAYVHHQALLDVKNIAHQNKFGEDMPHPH
Protocol: (§1) All three full-length rhHDACs were expressed in insect High5 cells using a baculoviral expression system, and all the His6-tagged and GST-fusion proteins were purified using Ni-NTA (QIAGEN). […] In brief, the HDAC assay mixture contained an HDAC substrate (5–50 μM, 5 μl), rhHDAC isoforms (20–200 nM) and an inhibitor (1 μl). The positive controls contained all the above components except the inhibitor. The negative controls contained neither an enzyme nor an inhibitor. The HDAC6 assay components were incubated at room temperature for 3 h, and HDAC 1 and 3 were incubated for 24 h. […] The plates were incubated for 30 min at room temperature to allow the fluorescence signal to develop.

HDAC1 [2] = biological target: T2, HDAC1 (Homo sapiens, UniProt Q13547); experiment: Western blot of HDAC1 protein level (degradation) in MM.1S cells; format: cell-based; parameters: endogenous in cells; host or cells: MM.1S; conditions: 3 h, different concentrations
Protocol: (§2) The 2 × 10^6 MM.1S cells (multiple myeloma) were cultured in a cell culture plate and incubated for 1 h. Next, the MM.1S cells were treated with compounds at different concentrations for 3 h. Subsequently, the cells were collected, washed, lysed in a Ripa buffer containing a sample reducing agent, and analyzed using SDS/PAGE. Finally, the gel was blotted and the total HDAC levels were detected through standard Western blot.

HDAC3 [3] = biological target: T3, HDAC3 (Homo sapiens, UniProt O15379); experiment: Western blot of HDAC3 protein level (degradation) in MM.1S cells; format: cell-based; parameters: endogenous in cells; host or cells: MM.1S; conditions: 3 h, different concentrations
Protocol: as §2
Target sequence in this assay (O15379 whole entry): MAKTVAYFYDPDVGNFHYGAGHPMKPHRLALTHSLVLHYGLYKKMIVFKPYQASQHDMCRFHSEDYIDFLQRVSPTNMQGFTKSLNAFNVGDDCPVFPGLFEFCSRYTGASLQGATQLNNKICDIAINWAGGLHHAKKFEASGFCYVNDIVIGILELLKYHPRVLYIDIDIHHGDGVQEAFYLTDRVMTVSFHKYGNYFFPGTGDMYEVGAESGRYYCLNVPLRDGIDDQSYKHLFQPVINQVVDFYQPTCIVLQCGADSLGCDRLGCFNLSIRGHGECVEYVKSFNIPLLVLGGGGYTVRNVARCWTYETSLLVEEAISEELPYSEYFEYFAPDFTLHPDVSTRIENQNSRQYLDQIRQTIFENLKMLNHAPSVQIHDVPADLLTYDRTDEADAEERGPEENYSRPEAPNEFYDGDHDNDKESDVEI

HDAC1 [4] = biological target: T2, HDAC1; experiment: In vitro HDAC inhibition assay (fluorogenic substrate), HDAC1; format: biochemical; parameters: All three full-length rhHDACs were expressed in insect High5 cells using a baculoviral expression system; His6; GST; made in house; host or cells: insect High5 cells (baculovirus); conditions: recombinant human HDAC1; mean ± SD of three independent determinations
Protocol: as §1

MM.1S cell line = experiment: In vitro anti-proliferative activity, MTS assay; format: cell-based; conditions: for IC50: Homo sapiens, MM1.S
Protocol: The cells were seeded in 96 well plates at a proper density in growth media. After 24 h, a range of concentrations of the test compounds was added and the plates were incubated at 37 °C for 72 h. The cell proliferation was determined by the MTS assay. After 3 h, the absorbance was collected using SpectraMAX 340. The IC50 values were calculated by fitting a concentration–response curve using a SoftMax pro-based four-parameter method.

HDAC3 [5] = biological target: T3, HDAC3; experiment: In vitro HDAC inhibition assay (fluorogenic substrate), HDAC3; format: biochemical; parameters: All three full-length rhHDACs were expressed in insect High5 cells using a baculoviral expression system; His6; GST; made in house; host or cells: insect High5 cells (baculovirus); conditions: recombinant human HDAC3; mean ± SD of three independent determinations
Protocol: as §1
Target sequence in this assay (O15379 whole entry): as above
Target sequence in this assay (Q9Y618 395-489 partner limits assumed): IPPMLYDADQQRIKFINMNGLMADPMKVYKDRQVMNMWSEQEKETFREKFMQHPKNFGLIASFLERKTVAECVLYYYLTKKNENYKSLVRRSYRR

HDAC6 [6] = biological target: T1, HDAC6; experiment: Western blot of HDAC6 protein level (degradation) in MM.1S cells; format: cell-based; parameters: endogenous in cells; host or cells: MM.1S; conditions: 3 h; for degradation of HDAC6 (immunoblot): different concentrations
Protocol: as §2

tubulin acetylation = experiment: Tubulin acetylation in MM.1S cells; format: cell-based
[7] = MM.1S, 72 h, MTS, mean ± SD of three independent determinations, read-out: IC50 (μM ± SD) anti-proliferative activity against MM.1S cell line

T2 sequence (Q13547 whole entry): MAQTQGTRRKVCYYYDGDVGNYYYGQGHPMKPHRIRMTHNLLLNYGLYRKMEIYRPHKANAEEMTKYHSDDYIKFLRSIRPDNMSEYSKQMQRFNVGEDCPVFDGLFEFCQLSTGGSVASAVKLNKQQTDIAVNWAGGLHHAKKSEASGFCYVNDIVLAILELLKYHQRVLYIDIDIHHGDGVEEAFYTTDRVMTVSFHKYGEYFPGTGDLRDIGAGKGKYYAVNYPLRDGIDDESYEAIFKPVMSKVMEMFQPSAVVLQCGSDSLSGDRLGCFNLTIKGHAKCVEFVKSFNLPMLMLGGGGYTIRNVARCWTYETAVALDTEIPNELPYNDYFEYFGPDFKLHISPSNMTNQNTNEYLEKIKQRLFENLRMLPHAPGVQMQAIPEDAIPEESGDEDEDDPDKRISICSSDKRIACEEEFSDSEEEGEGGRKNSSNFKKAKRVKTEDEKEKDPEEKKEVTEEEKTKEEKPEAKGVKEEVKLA

Row | IC50 (HDAC6 [1]) | degradation of HDAC1 (immunoblot) (HDAC1 [2]) | degradation of HDAC3 (immunoblot) (HDAC3 [3]) | IC50 (HDAC1 [4]) | IC50 (MM.1S cell line; [7]) | IC50 (HDAC3 [5]) | degradation of HDAC6 (immunoblot) (HDAC6 [6]) | IC50 (MM.1S cell line; MM.1S cells, printed beside the HDAC6 immunoblot, read-out: IC50 printed in the picture of Figure 4B) | HDAC6 degradation compared with HDAC1 and HDAC3 (immunoblot) (HDAC6 [6]; 0.12 μM) | Compound | increase in tubulin acetylation (tubulin acetylation) | anti-proliferative potency relative to SAHA (MM.1S cell line; MM.1S cell line)
1 | > 20 µM | almost no degradation | almost no degradation | 2.23 ± 0.3 µM | 1.34 ± 0.4 µM | 0.76 ± 0.1 µM | almost no degradation |  |  | O=C1CCC(N2C(=O)c3cccc(OCc4ccc(C(=O)NO)cc4)c3C2=O)C(=O)N1 (stereo not drawn) [23b, 4-(((2-(2,6-Dioxopiperidin-3-yl)-1,3-dioxoisoindolin-4-yl)oxy)methyl)-N-hydroxybenzamide] |  | 
2 | > 20 µM |  |  | 1.6 ± 0.54 µM | 0.043 ± 0.02 µM | 0.56 ± 0.02 µM | dose-dependent manner | 0.04 µM | superior HDAC6 degradation efficacies | Nc1ccccc1NC(=O)c1ccc(COc2cccc3c2CN(C2CCC(=O)NC2=O)C3=O)cc1 (stereo not drawn) [21a, N-(2-Aminophenyl)-4-(((2-(2,6-dioxopiperidin-3-yl)-1-oxoisoindolin-4-yl)oxy)methyl)benzamide] | not observed | approximately five times more potent
3 | 1.98 ± 0.69 µM |  |  | 2.31 ± 0.46 µM |  | 2.2 ± 0.29 µM |  |  |  | O=C(CCCCCC(=O)Nc1cccc2c1CN(C1CCC(=O)NC1=O)C2=O)NO (stereo not drawn) [9a, N^1-(2-(2,6-Dioxopiperidin-3-yl)-1-oxoisoindolin-4-yl)-N^7-hydroxyheptanediamide] |  | 
4 | 5.28 ± 1.42 µM |  |  | 0.44 ± 0.1 µM | > 10 µM | 0.22 ± 0.02 µM |  |  |  | O=C(CCCCCNC(=O)Nc1cccc2c1C(=O)N(C1CCC(=O)NC1=O)C2=O)NO (stereo not drawn) [15d, 6-(3-(2-(2,6-Dioxopiperidin-3-yl)-1,3-dioxoisoindolin-4-yl)ureido)-N-hydroxyhexanamide] |  | 
5 | > 20 µM | almost no degradation | almost no degradation | 1.2 ± 0.44 µM | 0.541 ± 0.108 µM | 0.28 ± 0.04 µM | almost no degradation |  |  | Nc1ccccc1NC(=O)c1ccc(COc2cccc3c2C(=O)N(C2CCC(=O)NC2=O)C3=O)cc1 (stereo not drawn) [21b, N-(2-Aminophenyl)-4-(((2-(2,6-dioxopiperidin-3-yl)-1,3-dioxoisoindolin-4-yl)oxy)methyl)benzamide] |  | 
6 | 2.94 ± 0.62 µM |  |  | 0.72 ± 0.18 µM |  | 0.75 ± 0.06 µM |  |  |  | O=C(CCCCCCCCC(=O)Nc1cccc2c1CN(C1CCC(=O)NC1=O)C2=O)NO (stereo not drawn) [9d, N^1-(2-(2,6-Dioxopiperidin-3-yl)-1-oxoisoindolin-4-yl)-N^10-hydroxydecanediamide] |  | 
7 | 0.38 ± 0.1 µM |  |  | 8.32 ± 2.1 µM | > 10 µM | 0.65 ± 0.03 µM |  |  |  | O=C1CCC(N2Cc3c(OCc4ccc(C(=O)NO)cc4)cccc3C2=O)C(=O)N1 (stereo not drawn) [23a, 4-(((2-(2,6-Dioxopiperidin-3-yl)-1-oxoisoindolin-4-yl)oxy)methyl)-N-hydroxybenzamide] |  | 
8 | 0.42 ± 0.18 µM |  |  | 2.7 ± 0.36 µM | > 10 µM | 0.33 ± 0.01 µM |  |  |  | O=C(CCCCCCC(=O)Nc1cccc2c1C(=O)N(C1CCC(=O)NC1=O)C2=O)NO (stereo not drawn) [9e, N^1-(2-(2,6-Dioxopiperidin-3-yl)-1,3-dioxoisoindolin-4-yl)-N^8-hydroxyoctanediamide] |  | 
9 | 3.67 ± 1.02 µM |  |  | 1.13 ± 0.03 µM |  | 1.06 ± 0.2 µM |  |  |  | O=C(CCCCCCCC(=O)Nc1cccc2c1CN(C1CCC(=O)NC1=O)C2=O)NO (stereo not drawn) [9c, N^1-(2-(2,6-Dioxopiperidin-3-yl)-1-oxoisoindolin-4-yl)-N^9-hydroxynonanediamide] |  | 
10 | 1.46 ± 1.02 µM |  |  | 0.38 ± 0.14 µM | > 10 µM | 0.47 ± 0.01 µM |  |  |  | O=C(CCCCCCC(=O)Nc1cccc2c1CN(C1CCC(=O)NC1=O)C2=O)NO (stereo not drawn) [9b, N^1-(2-(2,6-Dioxopiperidin-3-yl)-1-oxoisoindolin-4-yl)-N^8-hydroxyoctanediamide] |  | 
11 | 5.96 ± 1.43 µM |  |  |  | > 10 µM | 0.27 ± 0.04 µM |  |  |  | O=C(CCCCCNC(=O)Nc1cccc2c1CN(C1CCC(=O)NC1=O)C2=O)NO (stereo not drawn) [15a, 6-(3-(2-(2,6-Dioxopiperidin-3-yl)-1-oxoisoindolin-4-yl)ureido)-N-hydroxyhexanamide] |  | 
12 | 3.09 ± 0.54 µM |  |  | 0.82 ± 0.06 µM |  | 0.96 ± 0.13 µM |  |  |  | O=C(CCCCCCCCNC(=O)Nc1cccc2c1CN(C1CCC(=O)NC1=O)C2=O)NO (stereo not drawn) [15c, 9-(3-(2-(2,6-Dioxopiperidin-3-yl)-1-oxoisoindolin-4-yl)ureido)-N-hydroxynonanamide] |  | 
13 | 1.67 ± 0.41 µM |  |  | 0.57 ± 0.04 µM |  | 0.58 ± 0.04 µM |  |  |  | O=C(CCCCCCNC(=O)Nc1cccc2c1CN(C1CCC(=O)NC1=O)C2=O)NO (stereo not drawn) [15b, 7-(3-(2-(2,6-Dioxopiperidin-3-yl)-1-oxoisoindolin-4-yl)ureido)-N-hydroxyheptanamide] |  | 
